The target of one assay is T1, rat EP1 receptor (Rattus norvegicus, UniProt P70597).
T1 construct: expressed in transfected cells
T1 sequence (P70597 1-405): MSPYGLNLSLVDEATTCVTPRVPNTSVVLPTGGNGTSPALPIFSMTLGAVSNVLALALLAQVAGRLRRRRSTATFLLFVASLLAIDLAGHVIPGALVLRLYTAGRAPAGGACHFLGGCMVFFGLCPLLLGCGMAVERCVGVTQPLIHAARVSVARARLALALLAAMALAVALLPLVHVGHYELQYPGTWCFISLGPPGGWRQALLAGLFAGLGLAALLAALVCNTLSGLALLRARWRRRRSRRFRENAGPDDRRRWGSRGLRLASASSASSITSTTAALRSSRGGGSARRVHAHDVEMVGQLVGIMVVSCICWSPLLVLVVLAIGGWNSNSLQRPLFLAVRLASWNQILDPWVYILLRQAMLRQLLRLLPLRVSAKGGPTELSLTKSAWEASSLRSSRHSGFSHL
The assay can be described thus: Rat EP1 receptor agonistic/antagonistic action (intracellular Ca2+, FLIPR, HEK293 stable expression cells). Type of assay: cell-based. As to conditions: inhibition of intracellular Ca2+ increasing action by PGE2. On the procedure: Using rat EP1 or rat EP3β receptor stable expression cells, the intracellular Ca^2+ concentration was measured using a fluorescent imaging plate reader (FLIPR manufactured by Molecular Devices Corporation). The agonistic activity was evaluated by the intracellular Ca^2+ increasing action of the test compound, and the antagonistic activity was evaluated by the inhibiting action of the test compound on the intracellular Ca^2+ increasing action by PGE2.
The cDNA of the rat EP 1 or EP3β receptor was subcloned into an expression vector (pcDNA3.1-V5-His-topo, manufactured by Invitrogen Corporation). This expression vector was introduced into HEK293 cells (American Type Culture Collection) to prepare a rat EP1 or EP3β receptor stable expression cell line. These cells were seeded onto a 96-well poly-D-lysin treated black wall clear bottom plate (manufactured by Becton, Dickinson and Company) at 2 to 3×10^4 cell/well, and used for the experiment the next day. The measurement of the intracellular Ca^2+ concentration was carried out by an FLIPR calcium 3 assay kit (manufactured by Molecular Devices Corporation). The culture medium of each well was removed by suction and replaced with a loading buffer (Hank's balanced salt solution containing 20 mM HEPES-NaOH (pH 7.4), 2.5 mM Probenecid, 0.1% bovine serum albumin, and a color), followed by incubating at room temperature for 3 hours and loading a color. For the evaluation of the agonistic action, the change in the intracellular Ca^2+ concentration was determined from the difference in the maximum value of the intracellular Ca^2+ concentration after the addition of the test compound and the value before the addition of the test compound. For the evaluation of the antagonistic action, after incubating the test compound for 5 minutes, PGE2 was added thereto to determine the change in the intracellular Ca^2+ concentration by PGE2.
Further, NE means that the action has no significance.

Another assay concerns the target rat EP4 receptor (Rattus norvegicus, UniProt P43114). As to the kind of experiment: Evaluation test on EP4 receptor affinity in rat ([3H]PGE2 receptor binding test, membrane fraction). As to conditions: [3H]PGE2 0.3 nM, membrane fraction of rat EP4 expressing HEK293 cells. Set-up: expressed in transfected cells; host or cells: HEK293 cells, transient transfection (Lipofectamine 2000); membrane fraction used. As to the method:
A rat EP4 receptor cDNA was subcloned into an expression vector (pcDNA3.1-V5-His-topo, manufactured by Invitrogen Corporation) to prepare a rat EP4 expression vector. HEK293 cells were cultured in a collagen type I-treated 15 cm dish (manufactured by Asahi Techno Glass Co. Ltd.) to a confluence of 70%. An Opti-MEM culture medium at 1.2 mL/dish and a transfection reagent (Lipofectamine 2000, manufactured by Invitrogen Corporation) at 60 μL/dish were mixed, followed by being left to stand at room temperature for 5 minutes. Then, the rat EP4 receptor expression vector at 15 μg/dish was added thereto, followed by being left to stand at room temperature for 30 minutes. The liquid mixture of the transfection reagent was added into the dish, followed by culturing for 20 to 24 hours. The cell culture was carried out in a CO2 incubator (37° C., 5% CO2).
The culture medium was removed by suction, 10 mL of cooled PBS was added thereto per 15 cm dish, and the cells were scraped using a cell scraper. After washed with cooled PBS (1,200 rpm, 4° C., 5 minutes), suspended in 6 mL/dish of cooled 20 mM Tris-HCl (pH 7.4; manufactured by Nacalai Tesque Inc., 5 mM EDTA included) and homogenized using a Polytron, the homogenate was centrifuged (26,000 rpm, 20 minutes, 4° C.). The obtained precipitate was resuspended in cooled 20 mM Tris-HCl and homogenized again using a Polytron, and the homogenate was centrifuged (26,000 rpm, 20 minutes, 4° C.). The obtained precipitate was resuspended in 50 mM HEPES (pH 7.5; manufactured by Dojindo Laboratories) at 1 mL per dish, homogenized using a Polytron, and freeze-stored at −80° C. as a membrane fraction. At this time, a part thereof was used for the measurement of the protein concentration. Measurement of the protein concentration was carried out using a Protein assay stain (manufactured by Bio-Rad Laboratories) in accordance with a standard Protocol as appended in duplicate.
[^3H]PGE2 50 μL (final concentration 0.3 nM; manufactured by Perkin Elmer Co., Ltd.), 100 μL (20 μg/well) of the membrane fraction prepared from the rat EP4 expression cell, and 50 μL of a test compound were mixed in a 96-well microplate (manufactured by Sumitomo Bakelite Co., Ltd.), incubated at room temperature for 1 hour, then filtered by suction on a microplate (UniFilter-96 GF/B, manufactured by Perkin Elmer Co., Ltd.) using a cell harvester (FilterMate Harvester, manufactured by Perkin Elmer Co., Ltd.), and washed three times with 300 μL/well of a cooled assay buffer (50 mM HEPES, 10 mM MgCl2). Dilution of [^3H]PGE2 and the membrane fraction was carried out using the assay buffer, and dilution of the test compound and the unlabeled PGE2 was carried out using dimethyl sulfoxide and the assay buffer. The UniFilter-96 GF/B was treated by preliminarily washing twice with 200 μL/well of the cooled assay buffer. The UniFilter-96 GF/B after filtration was dried in a dryer overnight, 50 μL/well of a liquid scintillation cocktail (MicroScint20, manufactured by Perkin Elmer Co., Ltd.) was added thereto, and the radioactivity was then measured using a liquid scintillation counter for a microplate (TopCount, manufactured by Perkin Elmer Co., Ltd.). For measurement of the non-specific binding, an unlabeled PGE2 (final concentration 1 μM; manufactured by Cayman Chemical Company) was added. All of the measurements were carried out in duplicate, and the specific binding amount was determined by subtracting the non-specific binding amount from the total binding amount.
According to the test method as described above, the rat EP4 receptor affinity (Ki) of the compound of the formula (I) was measured. […] In this connection, Ex means Example Compound number.

Where a name gives a salt, the structure may show the parent alone.

As usually defined, the IC50 is the concentration that inhibits the measured activity by half. One may read the Ki as the equilibrium dissociation constant of an inhibitor or competing ligand from its target.

rat EP4 receptor, sequence (P43114 whole entry): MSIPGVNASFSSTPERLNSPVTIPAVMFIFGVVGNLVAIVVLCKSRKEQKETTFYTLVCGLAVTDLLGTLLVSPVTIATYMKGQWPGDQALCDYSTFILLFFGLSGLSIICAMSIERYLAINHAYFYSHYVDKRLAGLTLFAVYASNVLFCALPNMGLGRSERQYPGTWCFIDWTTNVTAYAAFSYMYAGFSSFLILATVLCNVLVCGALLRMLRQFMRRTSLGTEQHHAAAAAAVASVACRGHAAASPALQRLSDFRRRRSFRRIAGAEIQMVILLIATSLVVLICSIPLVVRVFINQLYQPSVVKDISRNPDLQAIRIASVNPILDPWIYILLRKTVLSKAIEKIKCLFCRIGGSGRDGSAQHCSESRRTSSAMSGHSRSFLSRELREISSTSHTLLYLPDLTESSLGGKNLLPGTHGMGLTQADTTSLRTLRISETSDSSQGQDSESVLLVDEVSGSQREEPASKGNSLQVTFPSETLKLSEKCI

In turn, `O=C(O)c1ccc(CCn2c(CNc3cccc(OC(F)(F)F)c3)c(Cl)cc(Cl)c2=O)cc1` [Example 107] returned a half-inhibitory concentration (IC50) on rat EP1 receptor above 10000 nM. This compound came in with an inhibition constant Ki at rat EP4 receptor of 10 nM.
The matching figures for `CCC[C@H]1CCCN1Cc1c(Cl)cc(Cl)c(=O)n1CCc1ccc(C(=O)O)cc1` [Example 17, 4-{2-[3,5-dichloro-2-oxo-6-{[(2S)-2-propylpyrrolidin-1-yl]methyl}pyridin-1(2H)-yl]ethyl}benzoic acid trifluoroacetate]: 2100 nM and 11 nM.
The matching figures for `O=C(O)c1ccc(CCn2c(CN3CCc4ccc(F)cc43)c(Cl)cc(Cl)c2=O)cc1` [Example 9, 4-(2-{3,5-dichloro-6-[(6-fluoro-2,3-dihydro-1H-indol-1-yl)methyl]-2-oxopyridin-1(21-1)-yl}ethyl)benzoic acid]: 1000 nM and 11 nM.
The matching figures for `CN(Cc1c(Cl)cc(Cl)c(=O)n1CCc1ccc(C(=O)O)cc1)c1cccc(Cl)c1` [Example 160]: 2700 nM and 11 nM.

The values above are taken from patent publication US20110082133A1, “PYRIDONE COMPOUNDS” (priority 2008, published 2011).
